The record followed here is US11026943B2, “Aminoquinoline derivatives and uses thereof” (UNIVERSITY OF DELHI, priority 2012, dated 2021).

One assay addresses Nurr1 LBD (Mus musculus, UniProt Q06219). The assay can be described thus: Fluorescence quenching assay, Nurr1-LBD. The following applies: increasing amounts of AQ, 0.1 nM-1 μM. The assay is classed as binding. On the procedure:
Fluorescence spectra were measured using a SHIMADZU fluorescence spectrophotometer (model RF-5310PC, SHIMADZU). The proteins (15 ng/μl) were incubated with different concentrations of AQ or kanamycin (0.1 nM, 1 nM, 10 nM, 100 nM and 1 μM in PBS buffer, pH7.0). Protein quenching was monitored at 25° C. by using 5 nm of excitation and 5 nm of emission slit-width. The excitation wavelength was 280 nm, and the emission spectra were measured between 290 and 430 nm.

Assay [1] deals with Nurr1 recruitment to TH promoter NL1 and NL3. The assay can be described thus: Chromatin immunoprecipitation in PC12 cells. The assay is classed as cell-based, rat. The following applies: 20 μM AQ or 75 μM CQ for 15 hrs. On the procedure:
Error bars represent standard deviations.
Cells were washed with PBS, fixed with 1% formaldehyde, lysed, and sonicated according to the manufacturer's instruction (Active Motif). 25 μg of soluble chromatin DNA were co-immunoprecipitated 1 μg of Nurr1 specific antibody (E-20, Santa Cruz) or control antibody (rabbit IgG, santa Cruz). […] Values are shown as fold induction compared to mock treated control cells.

Assay [2] relates to murine microglial BV-2 cells. The format is cell-based, mouse. Particulars: 10 ng/ml LPS for 4 hrs, AQ 10 and 15 μM. On the procedure:
To prepare primary cultures of DA neurons, the ventral mesencephalon was removed from 14 day gestation Sprague Dawley rat embryo (Charles River, Cambridge, Mass.). Tissues were incubated with 0.01% trypsin in MEM (MEM, Invitrogen) for 10 min at 37° C. and triturated using a constricted Pasteur pipette. DA neurons were plated at 1.0×10^5 cells per 9 mm diameter glass cover slip precoated with 100 μg/ml poly-D-lysine (Sigma, St. Louis, Mo.) and 4 μg/ml laminin (Invitrogen). DA neurons were maintained at 37° C. in a humidified 5% CO2 atmosphere in minimum essential medium supplemented with 10% FBS (Hyclone), 2 mM glutamine and 6.0 g/l glucose. At 5 or 6 days in vitro, DA neurons were washed with MEM and treated with various experimental reagents for the time periods indicated. Reagents used were 6-OHDA (Sigma), N-acetyl-cysteine, N-benzyloxycarbonyl-Val-Ala-Asp-fluoromethylketone (Z-VAD-fink; Enzyme Systems Products, Livermore, Calif.). BV-2 cells, a microglial-like mouse cell line, were thawed and passaged until logarithmic growth was achieved. Cell cultures were maintained in 6-well culture plate (Corning Costar, Corning, N.Y.) at a concentration of 1.0×10^5 cells per well, in the growth medium consisting of DMEM (Sigma, St. Louis, Mo.), supplemented with 10% fetal bovine serum (FBS; Hyclone) heat inactivated at 56° C. for 30 min, 2 mM L-glutamine(Sigma) and 1× Pen-Strep (Invitrogen). […]

The next assay relates to 6-OHDA-lesioned rats. The assay can be described thus: 6-OHDA-lesioned rat model of PD (amphetamine rotation, TH+ and Iba-1 counts). The format is in vivo. On the procedure: Cells were fixed in 4% paraformaldehyde (PFA) for 20 min, washed and then incubated with blocking buffer [PBS, 10% goat serum (Invitrogen), 0.3% Triton X-100 (Sigma)] for 1 hour. Cells were then incubated overnight at 4° C. with primary antibodies with the primary antibody in PBS containing 1% normal goat serum and 0.1% Triton X-100. A rabbit polyclonal anti-TH antibody (1:500; Pel-Freez, Rogers, Ark.) was used as a primary antibody. Following washes with PBS, appropriate fluorescence-tagged secondary antibodies (Jackson Immunoresearch Laboratories, West Grove, Pa.) were used for visualization. Stained samples were mounted in […] with DAPI mounting solution (Vector Laboratories INC., Burlingame, Calif.) and photographed using epifluorescence microscope (Leica). […] The tissues were washed three times in PBS and incubated for 2 h with the secondary fluorescence-conjugated goat anti-mouse and rabbit antibody (DAKO, Denmark, Cy3, FITC, both dilutions at 1:1,000) and tissues were washed and mounted in Vectorshield. […] Tissues were visualized using fluorescence microscopy. […] The protection percentage of total TH^+ cells in the lesioned hemisphere of each rat brain was calculated by dividing total TH^+ cells in the intact hemisphere of each rat brain and multiplying […]. […]

Sequence of Nurr1 LBD (Q06219 328-598): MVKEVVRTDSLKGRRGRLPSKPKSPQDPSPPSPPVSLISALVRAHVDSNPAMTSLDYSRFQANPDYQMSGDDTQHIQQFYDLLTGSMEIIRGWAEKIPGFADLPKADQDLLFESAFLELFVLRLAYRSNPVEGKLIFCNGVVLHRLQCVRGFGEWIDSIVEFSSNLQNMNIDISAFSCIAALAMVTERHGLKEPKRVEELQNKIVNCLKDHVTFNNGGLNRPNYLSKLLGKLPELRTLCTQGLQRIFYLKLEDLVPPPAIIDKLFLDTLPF

As to `CCN(CC)Cc1cc(Nc2ccnc3cc(Cl)ccc23)ccc1O` [AQ, amodiaquine], the “fluorescence quenching of Nurr1-LBD” value at Nurr1 LBD is on record as “fluorescence intensity gradually decreased”. For the same compound, in assay [1], the “Nurr1 recruitment to NL1 and NL3 sites of the TH promoter” value is “recruited to both NL1 and NL3 sites”. For the same compound, the “LPS-induced expression of pro-inflammatory cytokines” value in assay [2] is given as “suppresses”. Besides, the “6-OHDA-induced (amphetamine) rotation behavior” value with 6-OHDA-lesioned rats (4 and 6 weeks post lesion, AQ 20 mg/kg i.p. twice per day, 2 weeks) was “significantly ameliorated”. Further, the “numbers of Iba-1+ microglia in ipsilateral SN and STR” value with 6-OHDA-lesioned rats (after AQ treatment) is reported as “decreased to the levels of the contralateral sides”.
